Laboratory results from US20110236467A1, “METHOD FOR ERECTILE FUNCTION PO[…] PHARMACEUTICAL CO[…] TX2-6 OF THE SPIDER PHONEUTRIA NIGRIVENTER” (priority 2008, published 2011).
“Also recorded” adds a separate entry of the source.

Tested on: nitric oxide synthase (NOS)
Test: Blockage of nitric oxide synthase by L-NAME and Tx2-6 action on erectile function (ICP/MAP) in rats
Type: in vivo, rat
Protocol: The participation of nitric oxide, resulting from the toxin effect on erection, was tested by using a nonselective inhibitor of the nitric oxide synthase enzyme, L-NAME (L-N^G-nitro-arginine methyl ester), intracavernosally injected (200 mg/Kg) in normotensive rats treated with Tx2-6 (subcutaneously injected; 48 μg/Kg).
Nitric oxide (NO) is generated from the amino acid L-arginine by means of the NOS enzyme action. This synthesis occurs in different parts of the organism, including the corpus cavernosum. In this experiment, an inhibitor nonspecific for NOS (L-NAME, 200 mg/Kg) was injected intracavemosally.

COC(=O)[C@@H](N)CCCNC(=N)N[N+](=O)[O-] [L-NAME, L-N^G-nitro-arginine methyl ester]
effect of L-NAME on rat erectile function (ICP/AMP ratio) (L-NAME 200 mg/Kg intracavernosal, submaximum stimulation): blocked rat erectile function; also recorded: significant blockage
effect of L-NAME on the potentiator effect of erection caused by the toxin (ICP/MAP relation) (L-NAME with Tx2-6): completely blocked
